From patent publication US8796457B2, “Compound useful for the treatment of degenerative and inflammatory diseases” (Galapagos NV, priority 2009, dated 2014)
Read-outs that look alike come from different tables or passages of the source.

Experiments:
[1] = target: Recombinant human JAK1 (catalytic domain) (Homo sapiens (Human), UniProt P23458); assay: JAK1 inhibition assay; assay type: biochemical; settings: average ± standard error of the mean; 7 μM ATP
Experimental: After 60 min at room temperature, reactions were stopped by adding 20 μL/well of detection mixture (1× detection buffer (Perkin Elmer, catalog number CR97-100C), 0.5 nM Europium-anti-phosphotyrosine (PT66) (Perkin Elmer, catalog number AD0068), 10 mM EDTA). […] Kinase activity was calculated by subtracting relative fluorescence units (RFU) obtained in the presence of a positive control inhibitor (10 μM staurosporine) from RFU obtained in the presence of vehicle.
Dose dilution series were prepared for the compounds enabling the testing of dose-response effects in the JAK1 assay and the calculation of the IC50 for the compound. […] The data are expressed as the average IC50 from the assays±standard error of the mean.

[2] = tested on: JAK1 dependent pathway (IFNα induced pSTAT1) in human whole blood; assay: Whole blood assay, IFNα stimulation, Phospho-STAT1 ELISA; assay type: cell-based; settings: for IC50: Homo sapiens, 6 blood donors, ± SEM, read-out: pIC50 for inhibiting the INFα induced increase of pSTAT1 levels (converted)
Experimental: The pH of the buffer was 7.3.
Proteinase inhibitors were added to the buffer before use.
The stock solution was stored at −20° C.
Human blood was collected in heparinized tubes. The blood was divided in aliquots of 392 μL.
The samples were incubated on ice for 15 min.
The cellular extracts were thawed on ice. […] The strips were incubated overnight at 4° C.
Absorbance was measured at 450 nm.

[3] = Microsomal stability, human; assay type: in vitro ADME; settings: human liver microsomes, 3 μM compound, 37° C.
Experimental: A 10 mM stock solution of compound in DMSO was diluted 1000 fold in a 182 mM phosphate buffer pH7.4 in a 96 deep well plate (Greiner, Cat no. 780285) and pre-incubated at 37° C.
40 μL of deionised water was added to a well of a polypropylene Matrix 2D barcode labelled storage tube (Thermo Scientific) and pre-incubated at 37° C.
A Glucose-6-phophate-dehydrogenase (G6PDH) working stock solution was prepared in 182 mM phosphate buffer pH7.4 and placed on ice before use. A co-factor containing MgCl2, glucose-6-phosphate and NADP+ was prepared in deionised water and placed on ice before use. […]
These plates were sealed with sealing mats (MA96RD-04S) of www.kinesis.co.uk and samples were measured at room temperature on LCMS (ZQ 1525 from Waters) under optimized conditions using Quanoptimize to determine the appropriate mass of the parent molecule.
The samples were analyzed on LCMS with a flow rate of 1 mL/min. […]
Peak area from the parent compound at time 0 was considered to be 100% remaining. The percentage remaining after 1 hour incubation was calculated from time 0 and was calculated as the percentage remaining. […]
The data on microsomal stability are expressed as a percentage of the total amount of compound remaining after 60 minutes.

Sequence of Recombinant human JAK1 (catalytic domain) (P23458 866-1154): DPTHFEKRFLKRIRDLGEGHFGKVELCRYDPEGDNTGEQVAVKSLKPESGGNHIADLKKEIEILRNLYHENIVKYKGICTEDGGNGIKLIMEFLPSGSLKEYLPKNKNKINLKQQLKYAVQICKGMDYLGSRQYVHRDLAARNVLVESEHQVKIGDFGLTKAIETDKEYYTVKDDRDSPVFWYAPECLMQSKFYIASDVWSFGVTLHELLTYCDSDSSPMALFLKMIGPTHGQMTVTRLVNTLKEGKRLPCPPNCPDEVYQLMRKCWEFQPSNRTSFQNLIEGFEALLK

Question: What does the source list for `CC1(C)CN(C(=O)c2ccc(-c3cccc4nc(NC(=O)C5CC5)nn34)cc2)C1` [Compound 1, Cyclopropanecarboxylic acid{5-[4-(3,3-dimethyl-azetidine-1-carbonyl)-phenyl]-[1,2,4]triazolo[1,5-a]pyridin-2-yl}-amide]?
Answer: IC50 [1]: 6.6 ± 0.7 nM; IC50 ([2]; additional data analysis protocol (R2 > 0.8, hill slope < 3)): 617 nM; IC50 ([2]; human whole blood): 479 nM; selectivity for the JAK1 pathway versus the JAK2 pathway ([2]; IFNα pSTAT1 vs GM-CSF IL-8, human whole blood): 28 fold; selectivity for the JAK1 pathway versus the JAK2 pathway ([2]; additional data analysis protocol, IFNα pSTAT1 vs GM-CSF IL-8): 17.6 fold; Microsomal stability, percentage of compound remaining after 60 minutes, Human [3]: 76-100%
